Data from publication PMC8429728, “TNK1 is a ubiquitin-binding and 14-3-3-regulated kinase that can be targeted to block tumor growth” (Nature Communications, 2021).
Like-named read-outs stand apart in the source and are kept apart here.

Experiments:
Test in all cases: biochemical
Design in all cases: Reaction Biology 371-kinase panel at Km ATP, per cent enzyme activity relative to DMSO, single dose in duplicate
Details in all cases: duplicate measurements, Km ATP
TLK2 = TLK2 (Homo sapiens, UniProt Q86UE8)
TLK2, sequence (Q86UE8 whole entry): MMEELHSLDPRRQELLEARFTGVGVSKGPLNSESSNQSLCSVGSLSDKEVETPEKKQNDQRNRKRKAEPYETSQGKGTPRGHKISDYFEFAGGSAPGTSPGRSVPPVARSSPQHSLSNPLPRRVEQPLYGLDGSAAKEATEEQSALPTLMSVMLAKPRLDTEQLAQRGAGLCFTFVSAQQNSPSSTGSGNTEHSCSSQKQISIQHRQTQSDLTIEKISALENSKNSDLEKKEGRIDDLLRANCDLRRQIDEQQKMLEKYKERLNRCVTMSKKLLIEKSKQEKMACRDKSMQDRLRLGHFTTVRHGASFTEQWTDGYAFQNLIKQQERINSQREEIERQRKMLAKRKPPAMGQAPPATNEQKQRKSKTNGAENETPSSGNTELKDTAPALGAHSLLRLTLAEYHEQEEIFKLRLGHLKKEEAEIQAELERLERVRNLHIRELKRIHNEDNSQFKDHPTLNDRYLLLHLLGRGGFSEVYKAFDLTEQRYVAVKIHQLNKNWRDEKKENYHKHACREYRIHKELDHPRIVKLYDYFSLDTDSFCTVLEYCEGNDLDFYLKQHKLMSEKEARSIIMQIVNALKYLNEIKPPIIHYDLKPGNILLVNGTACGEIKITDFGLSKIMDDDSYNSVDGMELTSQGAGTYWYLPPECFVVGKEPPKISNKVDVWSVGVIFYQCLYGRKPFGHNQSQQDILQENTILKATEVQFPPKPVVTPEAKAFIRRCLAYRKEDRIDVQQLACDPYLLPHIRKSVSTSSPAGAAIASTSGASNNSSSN
Description: (§1) To assess kinase selectivity, we screened TP-5801 (300 nM) against a panel of 371 kinases in vitro. […] In addition to TNK1, only 7 other kinases were inhibited by more than 90% (Supplementary Fig. 8 and Supplementary Data 2). […] The resulting % Enzyme activity (relative to DMSO controls) were plotted in GraphPad and IC50 values were determined by sigmoidal dose-response (variable slope) curve fits, with a bottom constraint of 0.

PIM1 = PIM1 (Homo sapiens, UniProt P11309)
PIM1, sequence (P11309 whole entry): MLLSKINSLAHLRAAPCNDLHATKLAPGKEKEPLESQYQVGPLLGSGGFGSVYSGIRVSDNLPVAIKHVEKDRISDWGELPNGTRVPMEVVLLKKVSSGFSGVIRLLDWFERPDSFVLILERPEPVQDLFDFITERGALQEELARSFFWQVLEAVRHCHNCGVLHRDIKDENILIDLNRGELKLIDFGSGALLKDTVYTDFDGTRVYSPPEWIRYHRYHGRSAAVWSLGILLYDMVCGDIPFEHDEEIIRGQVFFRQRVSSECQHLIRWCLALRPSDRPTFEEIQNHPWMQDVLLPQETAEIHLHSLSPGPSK
Description: as §1

MYO3A = MYO3A (Homo sapiens, UniProt Q8NEV4)
Description: as §1

CAMK2a = CAMK2a (Homo sapiens, UniProt Q9UQM7)
Description: as §1

ERK1 = target: T1, ERK1 (Homo sapiens, UniProt P27361)
T1 construct: gene MAPK3
Description: as §1

RET = RET (Homo sapiens, UniProt P07949)
RET, sequence (P07949 whole entry): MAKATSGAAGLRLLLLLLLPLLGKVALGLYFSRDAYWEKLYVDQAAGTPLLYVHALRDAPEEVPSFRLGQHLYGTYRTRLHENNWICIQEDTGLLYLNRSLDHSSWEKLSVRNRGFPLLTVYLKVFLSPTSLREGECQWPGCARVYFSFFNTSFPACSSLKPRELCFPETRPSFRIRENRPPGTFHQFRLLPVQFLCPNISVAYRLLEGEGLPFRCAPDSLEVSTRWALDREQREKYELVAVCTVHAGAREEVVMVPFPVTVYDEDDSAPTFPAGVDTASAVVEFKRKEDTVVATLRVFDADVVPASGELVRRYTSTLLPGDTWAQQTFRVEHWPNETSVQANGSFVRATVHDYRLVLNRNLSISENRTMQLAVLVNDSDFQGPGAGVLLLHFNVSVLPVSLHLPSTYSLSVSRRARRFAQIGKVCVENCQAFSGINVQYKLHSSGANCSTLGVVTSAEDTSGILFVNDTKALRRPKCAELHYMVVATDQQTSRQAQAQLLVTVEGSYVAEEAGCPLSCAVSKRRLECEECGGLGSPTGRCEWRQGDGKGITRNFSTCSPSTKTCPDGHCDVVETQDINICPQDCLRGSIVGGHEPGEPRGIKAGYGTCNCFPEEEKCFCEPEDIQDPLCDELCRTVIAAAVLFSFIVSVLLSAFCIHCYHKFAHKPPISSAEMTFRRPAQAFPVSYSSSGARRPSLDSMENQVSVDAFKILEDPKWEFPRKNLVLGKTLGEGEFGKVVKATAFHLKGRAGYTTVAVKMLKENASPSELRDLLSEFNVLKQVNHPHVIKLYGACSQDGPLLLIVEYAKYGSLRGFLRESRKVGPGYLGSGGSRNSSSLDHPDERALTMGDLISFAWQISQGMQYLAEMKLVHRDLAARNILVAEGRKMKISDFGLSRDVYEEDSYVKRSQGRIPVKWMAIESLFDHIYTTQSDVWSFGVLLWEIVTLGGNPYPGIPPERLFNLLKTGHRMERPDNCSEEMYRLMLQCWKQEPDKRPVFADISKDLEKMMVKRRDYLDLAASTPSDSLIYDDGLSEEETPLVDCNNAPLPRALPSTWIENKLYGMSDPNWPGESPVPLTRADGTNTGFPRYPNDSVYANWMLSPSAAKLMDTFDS
Description: as §1

PHKg2 = PHKg2 (Homo sapiens, UniProt P15735)
Description: as §1

BRSK1 = BRSK1 (Homo sapiens, UniProt Q8TDC3)
Description: as §1

PKAcg = target: T2, PKAcg (Homo sapiens, UniProt P22612)
T2 construct: gene PRKACG
T2 sequence (P22612 whole entry): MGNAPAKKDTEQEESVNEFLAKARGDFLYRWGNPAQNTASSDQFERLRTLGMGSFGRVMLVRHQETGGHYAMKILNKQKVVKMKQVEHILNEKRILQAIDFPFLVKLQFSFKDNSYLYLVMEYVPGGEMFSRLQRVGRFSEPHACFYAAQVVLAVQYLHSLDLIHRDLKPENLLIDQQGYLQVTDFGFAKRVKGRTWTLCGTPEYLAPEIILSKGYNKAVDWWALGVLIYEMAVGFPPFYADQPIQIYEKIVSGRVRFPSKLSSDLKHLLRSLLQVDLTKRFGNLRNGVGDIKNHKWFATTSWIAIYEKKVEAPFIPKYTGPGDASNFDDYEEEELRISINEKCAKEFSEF
Description: as §1

HPK1/MAP4K1 = HPK1/MAP4K1 (Homo sapiens, UniProt Q92918)
Description: as §1

CLK3 = CLK3 (Homo sapiens, UniProt P49761)
CLK3, sequence (P49761 whole entry): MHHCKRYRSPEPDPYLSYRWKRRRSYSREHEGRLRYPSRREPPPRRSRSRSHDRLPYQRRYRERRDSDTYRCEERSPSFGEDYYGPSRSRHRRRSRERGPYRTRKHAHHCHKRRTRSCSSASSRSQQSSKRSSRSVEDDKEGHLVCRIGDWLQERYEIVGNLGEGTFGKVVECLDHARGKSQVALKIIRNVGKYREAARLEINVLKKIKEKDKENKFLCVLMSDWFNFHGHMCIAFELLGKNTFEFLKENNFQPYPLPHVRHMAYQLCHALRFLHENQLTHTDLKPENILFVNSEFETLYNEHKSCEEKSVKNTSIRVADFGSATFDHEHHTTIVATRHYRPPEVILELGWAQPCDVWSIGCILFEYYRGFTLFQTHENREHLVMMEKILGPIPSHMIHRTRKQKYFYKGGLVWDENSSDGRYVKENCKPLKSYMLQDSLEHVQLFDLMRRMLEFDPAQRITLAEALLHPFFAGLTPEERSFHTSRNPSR
Description: as §1

LKB1 = target: T3, LKB1 (Homo sapiens, UniProt Q15831)
T3 construct: gene STK11
T3 sequence (Q15831 whole entry): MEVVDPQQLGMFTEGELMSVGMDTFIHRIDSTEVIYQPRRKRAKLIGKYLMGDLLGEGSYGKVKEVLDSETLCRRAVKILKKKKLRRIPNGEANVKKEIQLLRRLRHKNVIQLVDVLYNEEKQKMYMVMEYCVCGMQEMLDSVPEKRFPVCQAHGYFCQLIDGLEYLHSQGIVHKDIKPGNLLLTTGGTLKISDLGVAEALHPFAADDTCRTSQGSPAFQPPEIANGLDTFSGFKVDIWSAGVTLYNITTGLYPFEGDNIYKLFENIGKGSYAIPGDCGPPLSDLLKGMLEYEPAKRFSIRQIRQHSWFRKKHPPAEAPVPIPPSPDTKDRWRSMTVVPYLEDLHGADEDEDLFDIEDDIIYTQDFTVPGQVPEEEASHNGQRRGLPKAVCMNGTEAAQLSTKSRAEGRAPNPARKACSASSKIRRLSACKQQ
Description: as §1

CDK1/cyclin A = CDK1/cyclin A (Homo sapiens, UniProt P06493)
CDK1/cyclin A, sequence (P06493 whole entry): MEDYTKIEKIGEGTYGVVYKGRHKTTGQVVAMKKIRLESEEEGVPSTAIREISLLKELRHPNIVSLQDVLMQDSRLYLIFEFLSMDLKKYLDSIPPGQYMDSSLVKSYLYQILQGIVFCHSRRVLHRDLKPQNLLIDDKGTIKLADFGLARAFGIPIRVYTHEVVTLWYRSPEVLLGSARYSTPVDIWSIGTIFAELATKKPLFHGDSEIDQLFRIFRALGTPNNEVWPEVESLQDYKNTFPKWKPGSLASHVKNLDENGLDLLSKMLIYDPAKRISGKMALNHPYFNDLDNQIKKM
CDK1/cyclin A, sequence (P20248 whole entry partner): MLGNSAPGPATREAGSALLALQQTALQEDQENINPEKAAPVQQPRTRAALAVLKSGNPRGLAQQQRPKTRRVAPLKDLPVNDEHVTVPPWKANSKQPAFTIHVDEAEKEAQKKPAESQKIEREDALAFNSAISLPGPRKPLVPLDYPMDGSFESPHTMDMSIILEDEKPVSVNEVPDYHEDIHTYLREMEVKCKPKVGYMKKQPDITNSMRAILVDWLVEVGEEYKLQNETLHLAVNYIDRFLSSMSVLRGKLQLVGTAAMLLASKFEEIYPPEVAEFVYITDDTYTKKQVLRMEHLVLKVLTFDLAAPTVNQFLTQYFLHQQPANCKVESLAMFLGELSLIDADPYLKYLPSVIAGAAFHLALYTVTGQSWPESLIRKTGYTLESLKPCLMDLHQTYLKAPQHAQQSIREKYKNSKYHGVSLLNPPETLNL
Description: as §1

MEKK3 = target: T4, MEKK3 (Homo sapiens, UniProt Q99759)
T4 construct: gene MAP3K3
Description: as §1

P38d/MAPK13 = P38d/MAPK13 (Homo sapiens, UniProt O15264)
P38d/MAPK13, sequence (O15264 whole entry): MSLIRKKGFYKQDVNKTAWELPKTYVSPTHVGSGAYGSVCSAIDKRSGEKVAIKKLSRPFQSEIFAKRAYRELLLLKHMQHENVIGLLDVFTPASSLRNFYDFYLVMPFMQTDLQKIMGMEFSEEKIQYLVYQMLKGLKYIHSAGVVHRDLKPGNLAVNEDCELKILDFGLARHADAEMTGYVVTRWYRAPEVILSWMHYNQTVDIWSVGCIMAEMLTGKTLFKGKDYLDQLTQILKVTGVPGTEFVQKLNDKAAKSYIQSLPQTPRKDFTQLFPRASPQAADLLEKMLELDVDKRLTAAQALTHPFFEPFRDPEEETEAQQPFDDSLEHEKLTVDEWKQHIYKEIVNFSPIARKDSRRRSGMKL
Description: as §1

FMS = target: T5, FMS (Homo sapiens, UniProt P07333)
T5 construct: gene CSF1R
Description: as §1

STK25/YSK1 = STK25/YSK1 (Homo sapiens, UniProt O00506)
STK25/YSK1, sequence (O00506 whole entry): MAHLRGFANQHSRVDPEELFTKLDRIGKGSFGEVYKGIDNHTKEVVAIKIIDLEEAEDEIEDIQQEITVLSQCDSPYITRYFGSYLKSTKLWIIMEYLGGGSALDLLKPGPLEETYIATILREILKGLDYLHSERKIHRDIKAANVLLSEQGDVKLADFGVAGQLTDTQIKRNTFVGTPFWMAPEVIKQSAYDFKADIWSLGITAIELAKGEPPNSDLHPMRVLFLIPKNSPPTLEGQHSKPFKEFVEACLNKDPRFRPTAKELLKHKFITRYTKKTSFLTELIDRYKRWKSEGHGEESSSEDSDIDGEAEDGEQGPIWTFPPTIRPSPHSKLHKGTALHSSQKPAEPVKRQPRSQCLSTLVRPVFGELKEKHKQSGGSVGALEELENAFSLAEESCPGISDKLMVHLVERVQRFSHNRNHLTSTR
Description: as §1

GLK/MAP4K3 = GLK/MAP4K3 (Homo sapiens, UniProt Q8IVH8)
Description: as §1

AKT3 = AKT3 (Homo sapiens, UniProt Q9Y243)
Description: as §1

AXL = AXL (Homo sapiens, UniProt P30530)
Description: as §1

[1] = read-out: % Enzyme Activity (relative to DMSO controls) / TP-0005801 (0.3µM) / Data 1
[2] = read-out: % Enzyme Activity (relative to DMSO controls) / TP-0005801 (0.3µM) / Data 2

COc1cc(N2CCN(C)CC2)c(C)cc1Nc1ncc(Br)c(Nc2cccnc2N(C)C)n1 [TP-5801]
remaining activity at 0.3 µM (TLK2; [1]): 101%
remaining activity at 0.3 µM (TLK2; [2]): 100%
remaining activity at 0.3 µM (PIM1; [1]): 93.2%
remaining activity at 0.3 µM (PIM1; [2]): 92.8%
remaining activity at 0.3 µM (MYO3A; [1]): 69.8%
remaining activity at 0.3 µM (MYO3A; [2]): 66.3%
remaining activity at 0.3 µM (CAMK2a; [1]): 8.85%
remaining activity at 0.3 µM (CAMK2a; [2]): 8.25%
remaining activity at 0.3 µM (ERK1; [1]): 108%
remaining activity at 0.3 µM (ERK1; [2]): 107%
remaining activity at 0.3 µM (RET; [1]): 83.2%
remaining activity at 0.3 µM (RET; [2]): 81.2%
remaining activity at 0.3 µM (PHKg2; [1]): 72.4%
remaining activity at 0.3 µM (PHKg2; [2]): 71.3%
remaining activity at 0.3 µM (BRSK1; [1]): 101%
remaining activity at 0.3 µM (BRSK1; [2]): 95.8%
remaining activity at 0.3 µM (PKAcg; [1]): 95.5%
remaining activity at 0.3 µM (PKAcg; [2]): 92.1%
remaining activity at 0.3 µM (HPK1/MAP4K1; [1]): 25.8%
remaining activity at 0.3 µM (HPK1/MAP4K1; [2]): 25.6%
remaining activity at 0.3 µM (CLK3; [1]): 79.1%
remaining activity at 0.3 µM (CLK3; [2]): 77.3%
remaining activity at 0.3 µM (LKB1; [1]): 107%
remaining activity at 0.3 µM (LKB1; [2]): 105%
remaining activity at 0.3 µM (CDK1/cyclin A; [1]): 102%
remaining activity at 0.3 µM (CDK1/cyclin A; [2]): 101%
remaining activity at 0.3 µM (MEKK3; [1]): 92.4%
remaining activity at 0.3 µM (MEKK3; [2]): 88.5%
remaining activity at 0.3 µM (P38d/MAPK13; [1]): 102%
remaining activity at 0.3 µM (P38d/MAPK13; [2]): 91.4%
remaining activity at 0.3 µM (FMS; [1]): 56.3%
remaining activity at 0.3 µM (FMS; [2]): 55.6%
remaining activity at 0.3 µM (STK25/YSK1; [1]): 85.8%
remaining activity at 0.3 µM (STK25/YSK1; [2]): 80.9%
remaining activity at 0.3 µM (GLK/MAP4K3; [1]): 35%
remaining activity at 0.3 µM (GLK/MAP4K3; [2]): 34.3%
remaining activity at 0.3 µM (AKT3; [1]): 105%
remaining activity at 0.3 µM (AKT3; [2]): 98.7%
remaining activity at 0.3 µM (AXL; [1]): 89.2%
remaining activity at 0.3 µM (AXL; [2]): 86.3%
